Data on 3 molecules can be found in patent publication US8853234B2, “Quinolone analogs and methods related thereto” (Senhwa Biosciences, Inc., priority 2007, dated 2014).

The subject of one series is rDNA. As to the kind of experiment: Quantitative PCR (QPCR) assay, rRNA inhibition (rDNA). Format: cell-based. The arrangement: Selectivity: reference not given here. To be noted: for Selectivity: not defined in the patent; for IC50: rRNA inhibition from quantitative PCR assay. From the text:
In a specific assay embodiment, provided herein is a method for identifying a molecule that modulates ribosomal RNA (rRNA) synthesis, which comprises: contacting cells with a test molecule of Formula (I), (II), (III), (IV), (V), (VI), (VI′), (VII), or (VIII), contacting a ribosomal nucleotide sequence with one or more primers that amplify a portion thereof and a labeled probe that hybridizes to the amplification product, and detecting the amount of the amplification product by hybridization of the labeled probe, whereby a test molecule that reduces or increases the amount of amplification product is identified as a molecule that modulates rRNA synthesis. The labeled probe in some embodiments is added after the primers are added and the rRNA is amplified, and in certain embodiments, the labeled probe and the primers are added at the same time. The portion of ribosomal nucleotide sequence amplified sometimes is at the 5′ end of rDNA.
Real-time quantitative PCR (QPCR) method may be used to detect the changes of the target c-myc and the endogenous reference GAPDH gene copies in the same tube. Generally, cells (15,000 cells/well) are seeded on 96 well flat bottom plates (Corning, N.Y.) and incubated under normal growth conditions for overnight. The next day, the culture medium is exchanged for that containing anticancer drugs at various concentrations and incubated for 4 hrs in a humidified atmosphere of 5% CO2 at 37° C. Total RNA (tRNA) is extracted using the RNeasy 96 Kit (QIAGEN, CA). The concentration of the tRNA is determined by the RiboGreen RNA Quantitation Reagent (Molecular Probes, OR).
A reverse-transcription (RT) reaction may be conducted using 50 ng of tRNA from each well in a 25 μl reaction containing 1× TaqMan RT buffer, 2.5 uM random hexamers, 5.5 mM MgCl2, 0.5 mM each deoxynucleoside triphosphate (dNTP), 30 U MultiScribe Reverse Transcriptase, and 10 U RNase inhibitor. RT reactions are incubated for 10 min at 25° C., reverse-transcribed for 30 min at 48° C., inactivated for 5 min at 95° C., and placed at 4° C. All RT reagents may be purchased from Applied Biosystems, CA.
Real-Time QPCR reaction may be performed in a 50 μl reaction containing the 5 μl of cDNA, 1× Universal PCR Master Mix, 1× c-myc Pre-Developed Primers and Probe set, and 0.8×GAPDH Pre-Developed Primers and Probe set. Because of the relative abundance of GAPDH gene in Hela, GAPDH primers and probe concentration may be adjusted to get accurate threshold cycles (CT) for both genes in the same tube. The threshold cycle (CT) indicates the fractional cycle number at which the amount of amplified target reaches a fixed threshold. By doing so, the GAPDH amplification is stopped before it can limit the common reactants available for amplification of the c-myc. The ΔRn value represents the normalized reporter signal minus the baseline signal. ΔRn increases during PCR as amplicon copy number increases until the reaction approaches a plateau.
The c-myc probe is labeled with 6FAM™ dye-MGB and the GAPDH probe is labeled with VIC™ dye-MTB. Preincubation is performed for 2 min at 50° C. to activate AmpErase UNG enzyme and then for 10 min at 95° C. to activate AmpliTaq DNA Polymerase. DNA is amplified for 40 cycles of 15 sec at 95° C. and 1 min at 60° C. Human c-myc and GAPDH cDNA are amplified, detected, and quantitated in real time using the ABI Prism 7000 Sequence Detection system (Applied Biosystems, CA), which is set to detect both 6-FAM and VIC reporter dyes simultaneously.
The data may be analyzed using the ABI PRISM Sequence Detection System and Microsoft Excel. Relative quantitation is done using the standard curve and comparative CT method at the same time, and both methods gave equivalent results. The cycle at which the amplification plot crosses the CT is known to accurately reflect relative mRNA values. (See, Heid, et al., Genome Res. (1996) 6:986-994; Gibson, et al., Genome Res. (1996) 6:995-1001). […]

Series [1] in a line: Cassette dosing oral pharmacokinetics in ICR mice. Type of series: in vivo. Conditions: ICR (IcrTac:ICR), mouse; cassette oral dose 25 mg/kg, female ICR mice, plasma, 0-8 h, none in table. How it is done: A cassette dosing procedure was utilized to determine pharmaceutical properties of compounds disclosed herein. In this procedure, compounds are selected for each cassette (i.e., cocktail) on the basis that mass spectrometric signals for each compound will not interfere with one another upon mass spectrometric analysis (e.g., will not overlap). The concentration of each compound in the dosing cassette often is about 20 mg/mL to achieve an oral dose level of 25 mg/kg in ICR mice. Aspects of the cassette dosing procedure are described hereafter.
Prepare 0.5 mL of 20 mg/mL dosing solution (in PBS or formulation vehicle) of 12 test compounds. Dilute a dosing solution 20 fold by transferring 10 μL of the stock solution into 190 μL acetonitrile containing 0.1% formic acid to achieve a final concentration of 1 mg/mL. Dilute further a 1 mg/mL solution 1,000 fold by transferring 1 μL of the stock solution into 999 μL acetonitrile containing 0.1% formic acid to achieve a final concentration of 1 μg/mL. Use the 1 μg/mL solution for mass spectrometric method development based on direct infusion. Determine parent/daughter mass spectra of each compound using multiple reaction monitoring (MRM). Compare parent/daughter mass spectra of each compound to assure no cross-reaction interference during LC-MS/MS measurements. Based on MRM mass spectra determine the composition of all cassettes.
Mix 250 μL of four prepared dosing solutions and an oral PK internal standard (20 mg/mL each) according to cassette design to achieve a final concentration of 4 mg/mL. Vortex cassettes rigorously and ultra-sonicate to obtain a clear solution or homogeneous suspension. Use the cassette solutions to dose animals by oral route of administration at 25 mg/kg.
All in vivo experiments follow protocols approved by the Animal Use and Care Committee. Female ICR mice (IcrTac:ICR), 8-10 weeks of age are obtained from Taconic (Hudson, N.Y.). Mice are housed on a 12 h/12 h light/dark cycle with ad libitum access to water and food. After a minimum two week acclimation period, the mice are randomized into groups with a minimum group size of four. The animals used for pharmacokinetic studies have a body-weight range of 25-35 g. A 25 mg/kg (4 mg/ml) dose of a cassette described in Example 1 is orally administered to mice that have been fasted overnight.
After compound administration, serial blood samples are collected via retro-orbital puncture with a capillary tube at various time points (15, 30 minutes and 1, 2, 4, 6 and 8 hours). The samples are transferred to a heparinized 0.5 mL microcentrifuge tube and placed on ice. Plasma is separated by centrifugation and samples are stored at −80° C. until assay.
Dilute a cassette dosing solution (4 mg/mL) four fold by transferring 25 μL of the stock solution into 75 μL of 50% acetonitrile containing 0.1% formic acid to achieve the concentration of 1 mg/mL. Dilute this stock solution further by serial dilutions to make 0.01, 0.1, 1 and 5 μg/mL working standard solutions.
Prepare 500 mL of 0.5 μg/mL solution of bioanalytical internal standard using 100% acetonitrile with 0.1% formic acid. Store the quenching solution in a tightly sealed bottle at 4° C.
Transfer 15 μL of blank mouse plasma to a 96 well plate and precipitate plasma proteins by pipetting of 120 μL of quenching solution to all plasma aliquots. Cover the plate with a matching plate mat and mix well for 30-60 seconds using a vertical multi-tube shaker.
Add 15 μL of the working standard solution of corresponding cassette to quenched plasma and vortex the plate for an additional 30-60 seconds. Then, centrifuge the plate at 4,000 rpm for 10 minutes at 4° C. Without disturbing the plasma protein pellet, transfer 120 μL of the supernatant to a new 96 well plate and dry the sample under nitrogen using a TurboVap® plate evaporator (Caliper Life Sciences; Hopkinton, Mass.). Reconstitute dried residues with 120 μL 20% acetonitrile containing 0.1% formic acid. […]

For series [2], the system named is A375 cell xenograft tumors. The series is described as follows: A375 cell xenograft tumor inhibition. To be noted: 75 mg/kg oral twice a day, seven days. Type of series: in vivo, rodents. The protocol:
Compounds A1, A2 and A3 also were tested for tumor inhibition in xenograft rodents. Rodents having A375 cell xenograft tumors were administered 100 mg/kg, 75 mg/kg and 100 mg/kg doses of Compound A1, A2 and A3, respectively, by oral delivery twice a day. […] Also, rodents having MiaPaCa xenograft tumors were administered 100 mg/kg doses of Compound A1 and A3 by oral delivery twice per day.

Series [3] deals with a variety of cell types that are representative of different cancers. The series is described as follows: Alamar Blue cell viability assay, variety of cell types representative of different cancers (Tables 12-14). Format: cell-based. To be noted: read-out: IC50. How it is done: A representative cell-proliferation assay protocol using Alamar Blue dye (stored at 4° C., use 20 ul per well) is described hereafter.
96-Well Plate Setup and Compound Treatment
a. Split and trypsinize cells.
b. Count cells using hemocytometer.
c. Plate 4,000-5,000 cells per well in 100 μl of medium and seed into a 96-well plate according to the following plate layout. Add cell culture medium only to wells B10 to B12. Wells B1 to B9 have cells but no compound added.
d. Add 100 μl of 2× drug dilution to each well in a concentration shown in the plate layout above. At the same time, add 100 μl of media into the control wells (wells B10 to B12). Total volume is 200 μl/well.
e. Incubate four (4) days at 37° C., 5% CO2 in a humidified incubator.
f. Add 20 μl Alamar Blue reagent to each well.
g. Incubate for four (4) hours at 37° C., 5% CO2 in a humidified incubator.
h. Record fluorescence at an excitation wavelength of 544 nm and emission wavelength of 590 nm using a microplate reader.
In the assays, cells are cultured with a test compound for approximately four days, the dye then is added to the cells and fluorescence of […] dye is detected after approximately four hours. Different types of cells can be utilized in the assays (e.g., HCT-116 human colorectal carcinoma cells, PC-3 human prostatic cancer cells and MiaPaca human pancreatic carcinoma cells). Anti-proliferative effects of representative compounds are provided hereafter.
Inhibitory activity on cell proliferation of Compounds A1, A2 and A3 was determined using an Alamar Blue cell viability assay (e.g., Example 39 herein) using a variety of cell types that are representative of different cancers Inhibition values (IC50) are presented in micromolar concentrations in the following table (Table 12).
Inhibitory activity on cell proliferation of representative compounds of the invention was determined using an Alamar Blue cell viability assay (e.g., Example 39 herein) using a variety of cell types that are representative of different cancers Inhibition values (IC50) are presented in micromolar concentrations in Table 13 and Table 14.

Read-outs that look alike come from different tables or passages of the source.

As usually defined, the IC50 is the concentration at which inhibition is half-maximal. One may read the AUC(0-t) as exposure summed from dosing to a finite time, without extrapolation to infinity. Regarding `O=C(NCc1ccccn1)c1c(=O)c2cc(F)c(N3CCOCC3)nc2n2c1sc1ccccc12`, in the series on rDNA, the Selectivity was determined as 1 and the IC50 turned out to be 22.6 µM. Further, the AUC(0-t) in series [1] is 90600 ng·h/mL.
In the series with rDNA, `CN1CCN(NC(=O)c2c(=O)c3cc(F)c(N4CCOCC4)nc3n3c2sc2ccccc23)CC1` displayed a Selectivity of 89 and a half-inhibitory concentration (IC50) of 0.102 µM. Moreover, in series [1], the AUC(0-t) is 4360 ng·h/mL.
Take `Cc1cnc(CNC(=O)c2c(=O)c3ccc(N4CCCN(C)CC4)nc3n3c2sc2ccccc23)cn1` [Compound A2]: in series [2], the “A375 tumor growth inhibition relative to untreated control group” value is “significantly inhibited A375 tumor growth”. Besides, the 50% inhibitory concentration (IC50) is 0.023 µM in series [3] (Homo sapiens, A-375, A375, Skin, Epithelial); 0.035 µM in series [3] (Homo sapiens, BXPC-3, BXPC3, Pancreas, Epithelial); 0.096 µM in series [3] (Homo sapiens, COLO 205, COLO-205, Colorectal, Epithelial); 0.032 µM in series [3] (Homo sapiens, HCT-116, HCT-116, Colorectal, Epithelial); 0.147 µM in series [3] (Homo sapiens, HL60/MX2, HL60/MX2, Hematopoetic, Lymphoma); 0.083 µM in series [3] (Homo sapiens, HL-60, HL60, Hematopoetic, Lymphoma). In addition, the IC50 was 0.042 µM in series [3] (Homo sapiens, HT-29, HT-29, Colorectal, Epithelial); 0.025 µM in series [3] (Homo sapiens, Jurkat, Hematopoetic, Lymphoma); 0.042 µM in series [3] (Homo sapiens, K562, K562, Hematopoetic, Lymphoblast); 0.029 µM in series [3] (Homo sapiens, LNCaP, Prostate, Fibroblastoid); 0.052 µM in series [3] (Homo sapiens, MDA-MB-231, MDA-MB-231, Breast, Epithelial); 0.036 µM in series [3] (Homo sapiens, MIA PaCa-2, Miapaca-2, Pancreas, Epithelial). In addition, the IC50 was found to be 0.09 µM in series [3] (Homo sapiens, NCI-H460, H460, Lung, Epithelial); 0.069 µM in series [3] (Homo sapiens, NCI-H1299, H1299, Lung, NSCL); 0.124 µM in series [3] (Homo sapiens, SAOS-2, Saos-2, Bone, Epithelial); 0.021 µM in series [3] (Homo sapiens, SK-MES-1, SK-MES-1, Lung, Sqaumous carcinoma); 0.064 µM in series [3] (Homo sapiens, SK-OV-3, SK-OV-3, Ovary, Epithelial); 0.089 µM in series [3] (Homo sapiens, U2OS, Bone, Epithelial). For the same molecule, the IC50 in series [3] (Miapaca-R5, Pancreas, Epithelial) turned out to be 0.034 µM; in series [3] (PC-3, Prostate, Epithelial), 0.089 µM.
